Tested on: 991263-137-R1-J2-PDC complex spheroid viability
Assay: Anticancer human tumor 991263-137-R1-J2-PDC patient-derived colon adenocarcinoma cell line growth inhibition [POLQ]
Conditions: for IC50: curve of first compound; for viability, T/C: stronger effect = lower value
Method in brief: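 Growth inhibition in 3D: complex spheroids (tumor PDC, HUVEC, MSC) treated with POLQ inhibitor combinations; where Cmax unknown, highest tested concentration 10 microM, except SN-38 at 1 microM.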

[1] = second compound 0.0316 µM, first compound 0.0316 µM
[2] = second compound 0.0316 µM, first compound 0.1 µM
[3] = second compound 0.0316 µM, first compound 0.316 µM
[4] = second compound 0.0316 µM, first compound 1 µM
[5] = second compound 0.0316 µM, first compound 3.16 µM
[6] = second compound 0.0316 µM, first compound 10 µM
[7] = second compound 0.1 µM, first compound 0.0316 µM
[8] = second compound 0.1 µM, first compound 0.1 µM
[9] = second compound 0.1 µM, first compound 0.316 µM
[10] = second compound 0.1 µM, first compound 1 µM
[11] = second compound 0.1 µM, first compound 3.16 µM
[12] = second compound 0.1 µM, first compound 10 µM
[13] = second compound 0.316 µM, first compound 0.0316 µM
[14] = second compound 0.316 µM, first compound 0.1 µM
[15] = second compound 0.316 µM, first compound 0.316 µM
[16] = second compound 0.316 µM, first compound 1 µM
[17] = second compound 0.316 µM, first compound 3.16 µM
[18] = second compound 0.316 µM, first compound 10 µM
[19] = second compound 1 µM, first compound 0.0316 µM
[20] = second compound 1 µM, first compound 0.1 µM
[21] = second compound 1 µM, first compound 0.316 µM
[22] = second compound 1 µM, first compound 1 µM
[23] = second compound 1 µM, first compound 3.16 µM
[24] = second compound 1 µM, first compound 10 µM
[25] = second compound 3.16 µM, first compound 0.0316 µM
[26] = second compound 3.16 µM, first compound 0.1 µM
[27] = second compound 3.16 µM, first compound 0.316 µM
[28] = second compound 3.16 µM, first compound 1 µM
[29] = second compound 3.16 µM, first compound 3.16 µM
[30] = second compound 3.16 µM, first compound 10 µM
[31] = second compound 10 µM, first compound 0.0316 µM
[32] = second compound 10 µM, first compound 0.1 µM
[33] = second compound 10 µM, first compound 0.316 µM
[34] = second compound 10 µM, first compound 1 µM
[35] = second compound 10 µM, first compound 3.16 µM
[36] = second compound 10 µM, first compound 10 µM
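Also: spheroids exposed to compounds for 7 days before readout.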
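For viability, T/C in this document: 100% = DMSO vehicle control viability.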

Compound C=CC(=O)N1CCN(c2nc(=O)n(-c3c(C)ccnc3C(C)C)c3nc(-c4c(O)cccc4F)c(F)cc23)C(C)C1 (stereo unspecified) + Nc1ccc(C#CCN(C(=O)Cc2ncc(C(F)(F)F)cc2C(F)(F)F)c2ccc(F)cc2)nn1 has an IC50 (second compound 0.0316 µM) greater than 10 µM, an IC50 (second compound 0.1 µM) greater than 10 µM and an IC50 (second compound 0.316 µM) greater than 10 µM. It also gave an IC50 (second compound 1 µM) greater than 10 µM, an IC50 (second compound 3.16 µM) greater than 10 µM and an IC50 (second compound 10 µM) greater than 10 µM. It also gave a viability, T/C [1] of 108%, a viability, T/C [2] of 100% and a viability, T/C [3] of 99.3%. The viability, T/C [4] was 96.5%, the viability, T/C [5] was 109% and the viability, T/C [6] was 116%. It also gave a viability, T/C [7] of 102%, a viability, T/C [8] of 104% and a viability, T/C [9] of 114%. It also gave a viability, T/C [10] of 98%, a viability, T/C [11] of 117% and a viability, T/C [12] of 105%. The viability, T/C [13] was 104%, the viability, T/C [14] was 105% and the viability, T/C [15] was 102%. For the same compound, the viability, T/C [16] was 96.7%, the viability, T/C [17] was 113% and the viability, T/C [18] was 106%. It also gave a viability, T/C [19] of 110%, a viability, T/C [20] of 105% and a viability, T/C [21] of 107%. The viability, T/C [22] was 97.7%, the viability, T/C [23] was 107% and the viability, T/C [24] was 100%. The viability, T/C [25] was 94.5%, the viability, T/C [26] was 85.6% and the viability, T/C [27] was 102%. The viability, T/C [28] was 102%, the viability, T/C [29] was 106% and the viability, T/C [30] was 110%. The viability, T/C [31] was 96.6%, the viability, T/C [32] was 107% and the viability, T/C [33] was 90.6%. It also gave a viability, T/C [34] of 117%, a viability, T/C [35] of 99.8% and a viability, T/C [36] of 100%.

Work on CC1COCCN1c1cc(C2(O)CC3CCC(C2)O3)c2cnn(-c3ccn[nH]3)c2n1 (stereo unspecified) + Nc1ccc(C#CCN(C(=O)Cc2ncc(C(F)(F)F)cc2C(F)(F)F)c2ccc(F)cc2)nn1 yielded an IC50 (second compound 0.0316 µM) of 1.97 µM, an IC50 (second compound 0.1 µM) of 1.83 µM and an IC50 (second compound 0.316 µM) of 1.97 µM. For the same compound, the IC50 (second compound 1 µM) was 1.81 µM, the IC50 (second compound 3.16 µM) was 1.25 µM and the IC50 (second compound 10 µM) was 0.882 µM. It also gave a viability, T/C [1] of 105%, a viability, T/C [2] of 104% and a viability, T/C [3] of 83%. It also gave a viability, T/C [4] of 62.2%, a viability, T/C [5] of 42.5% and a viability, T/C [6] of 30.5%. For the same compound, the viability, T/C [7] was 88.2%, the viability, T/C [8] was 97.1% and the viability, T/C [9] was 80.2%. It also gave a viability, T/C [10] of 59%, a viability, T/C [11] of 43.2% and a viability, T/C [12] of 30.8%. The viability, T/C [13] was 109%, the viability, T/C [14] was 108% and the viability, T/C [15] was 89.9%. It also gave a viability, T/C [16] of 63.4%, a viability, T/C [17] of 40.8% and a viability, T/C [18] of 33.1%. It also gave a viability, T/C [19] of 110%, a viability, T/C [20] of 101% and a viability, T/C [21] of 81.5%. For the same compound, the viability, T/C [22] was 61.5%, the viability, T/C [23] was 38.9% and the viability, T/C [24] was 32.7%. It also gave a viability, T/C [25] of 96.8%, a viability, T/C [26] of 88.7% and a viability, T/C [27] of 77.4%. It also gave a viability, T/C [28] of 52.8%, a viability, T/C [29] of 36.5% and a viability, T/C [30] of 31%. It also gave a viability, T/C [31] of 78.3%, a viability, T/C [32] of 82.1% and a viability, T/C [33] of 67.3%. For the same compound, the viability, T/C [34] was 45.7%, the viability, T/C [35] was 36.4% and the viability, T/C [36] was 24.5%.

Compound CCc1cc2c(N3CCc4c(cc(Cn5ccnc5)cc4-c4cn(C)nc4C(F)(F)F)C3=O)cc(C)nc2c(OC)n1 + Nc1ccc(C#CCN(C(=O)Cc2ncc(C(F)(F)F)cc2C(F)(F)F)c2ccc(F)cc2)nn1 has an IC50 (second compound 0.0316 µM) greater than 10 µM, an IC50 (second compound 0.1 µM) greater than 10 µM and an IC50 (second compound 0.316 µM) greater than 10 µM. The IC50 (second compound 1 µM) was greater than 10 µM, the IC50 (second compound 3.16 µM) was greater than 10 µM and the IC50 (second compound 10 µM) was greater than 10 µM. It also gave a viability, T/C [1] of 99.3%, a viability, T/C [2] of 104% and a viability, T/C [3] of 107%. For the same compound, the viability, T/C [4] was 98.7%, the viability, T/C [5] was 89.8% and the viability, T/C [6] was 92.2%. The viability, T/C [7] was 105%, the viability, T/C [8] was 99.9% and the viability, T/C [9] was 102%. For the same compound, the viability, T/C [10] was 98.2%, the viability, T/C [11] was 109% and the viability, T/C [12] was 96.9%. For the same compound, the viability, T/C [13] was 102%, the viability, T/C [14] was 112% and the viability, T/C [15] was 103%. It also gave a viability, T/C [16] of 103%, a viability, T/C [17] of 87.7% and a viability, T/C [18] of 104%. For the same compound, the viability, T/C [19] was 107%, the viability, T/C [20] was 107% and the viability, T/C [21] was 93.2%. It also gave a viability, T/C [22] of 90.5%, a viability, T/C [23] of 104% and a viability, T/C [24] of 93%. It also gave a viability, T/C [25] of 94.6%, a viability, T/C [26] of 99.9% and a viability, T/C [27] of 98.6%. The viability, T/C [28] was 96.6%, the viability, T/C [29] was 95.6% and the viability, T/C [30] was 83.9%. For the same compound, the viability, T/C [31] was 94.6%, the viability, T/C [32] was 103% and the viability, T/C [33] was 98.2%. It also gave a viability, T/C [34] of 92.7%, a viability, T/C [35] of 94.9% and a viability, T/C [36] of 93.2%.
